In patent publication US20240150340A1, “CDK Inhibitors And Their Use As Pharmaceuticals” (Prelude Therapeutics Incorporated, priority 2022, published 2024):

Tests used:
[1] = target: T1, CDK2/Cyclin E2 (Homo sapiens, UniProt P24941); assay: CDK2/CyclinE2 Enzymatic Activity Assay (TR-FRET); assay type: biochemical; conditions: ATP 1 mM final, read-out: CDK2_E1 IC50
T1 construct: Recombinant protein complex CDK2/Cyclin E2, expressed from insect cell, was purchased from ProQinase
Method in brief: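 Recombinant insect-cell CDK2/Cyclin E2 (1 nM) phosphorylated ULight-4E-BP1 (50 nM) with 1 mM ATP in HEPES pH 7.4 buffer, after 20 min compound preincubation; MgCl2 (10 mM) started the 45 min reaction at 37° C. Europium anti-phospho-4E-BP1 TR-FRET read; 9-dose IC50 by 4-parameter fit.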

[2] = target: T2, CDK4/Cyclin D1 (Homo sapiens, UniProt P11802); assay: CDK4/CyclinD1 Enzymatic Activity Assay (TR-FRET); assay type: biochemical; conditions: ATP 2 mM final, read-out: CDK4_D1 IC50
T2 construct: purchased ProQinase; host or cells: insect cell
Method in brief: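 Insect-cell-expressed CDK4/Cyclin D1 (1 nM) with ULight-4E-BP1 (100 nM) and 2 mM ATP in HEPES pH 7.4; 9-dose 3-fold compound series preincubated 20 min, reaction started with 10 mM MgCl2, 45 min at 37° C. Europium anti-P-4E-BP1 TR-FRET read; IC50 from 4-parameter Hill fit.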

[3] = tested on: OVCAR3 p-RB; assay: pRB ICW Assay in OVCAR3 Cells; assay type: cell-based; conditions: Homo sapiens, OVCAR-3, incubated with compound for 2 hours
Method in brief: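 OVCAR3 cells were treated 2 h at 37° C. with a 9-point half-log compound series, duplicate wells, with 10 μM reference compound as maximum inhibition. Fixed, permeabilized cells were stained with anti-phospho-RB plus DRAQ5 and imaged at 700/800 nm (In-Cell Western).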

T2 sequence (P11802 whole entry): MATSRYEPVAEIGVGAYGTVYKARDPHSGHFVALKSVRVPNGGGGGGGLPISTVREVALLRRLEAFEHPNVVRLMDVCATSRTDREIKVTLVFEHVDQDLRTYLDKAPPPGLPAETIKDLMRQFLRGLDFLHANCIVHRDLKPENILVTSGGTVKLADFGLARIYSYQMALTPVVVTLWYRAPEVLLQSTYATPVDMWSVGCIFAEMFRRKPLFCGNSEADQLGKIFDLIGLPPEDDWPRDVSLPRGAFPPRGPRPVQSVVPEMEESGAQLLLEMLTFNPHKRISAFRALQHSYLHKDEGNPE
T2 sequence (P24385 whole entry partner): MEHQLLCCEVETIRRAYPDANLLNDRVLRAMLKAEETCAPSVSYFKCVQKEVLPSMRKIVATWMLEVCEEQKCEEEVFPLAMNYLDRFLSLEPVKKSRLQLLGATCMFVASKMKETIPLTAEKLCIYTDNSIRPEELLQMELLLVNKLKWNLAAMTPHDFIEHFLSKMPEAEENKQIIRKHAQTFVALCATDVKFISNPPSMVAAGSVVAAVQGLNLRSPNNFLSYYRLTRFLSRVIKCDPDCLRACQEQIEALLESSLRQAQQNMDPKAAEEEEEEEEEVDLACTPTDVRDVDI

Structure (SMILES)	IC50 [1]	IC50 [2]	IC50 [3]
C[C@@H]1CN(S(=O)(=O)c2cnn(CC#N)c2)CC[C@@H]1Nc1ncc(C(F)(F)F)c(-c2cc(C(N)=O)cs2)n1 [Example 87, 5-(2-(((3R,4S)-1-((1-(Cyanomethyl)-1H-pyrazol-4-yl)sulfonyl)-3-methylpiperidin-4-yl)amino)-5-(trifluoromethyl)pyrimidin-4-yl)thiophene-3-carboxamide]	≤ 100 nM	≤ 100 nM	≤ 100 nM
Cc1sc(-c2nc(NC3CCN(S(=O)(=O)c4cnn(CC#N)c4)CC3)ncc2C(F)(F)F)cc1C#N [Example 88, 5-(2-((1-((1-(cyanomethyl)-1H-pyrazol-4-yl)sulfonyl)piperidin-4-yl)amino)-5-(trifluoromethyl)pyrimidin-4-yl)-2-methylthiophene-3-carbonitrile]	≤ 100 nM	≤ 100 nM	≤ 100 nM
CC(O)c1cnc(-c2nc(NC3CCN(S(=O)(=O)c4cnn(C)c4)CC3)ncc2C(F)(F)F)s1 (stereo not drawn) [Example 89, 1-(2-(2-((1-((1-Methyl-1H-pyrazol-4-yl)sulfonyl)piperidin-4-yl)amino)-5-(trifluoromethyl)pyrimidin-4-yl)thiazol-5-yl)ethan-1-ol]	≤ 100 nM	≤ 100 nM	≤ 100 nM
CC(O)c1sc(-c2nc(NC3CCN(S(=O)(=O)c4cnn(C)c4)CC3)ncc2C(F)(F)F)cc1C#N (stereo not drawn) [Example 90, 2-(1-Hydroxyethyl)-5-(2-((1-((1-methyl-1H-pyrazol-4-yl)sulfonyl)piperidin-4-yl)amino)-5-(trifluoromethyl)pyrimidin-4-yl)thiophene-3-carbonitrile]	≤ 100 nM	≤ 100 nM	≤ 100 nM
Cn1cc(S(=O)(=O)N2CCC(Nc3ncc(C(F)(F)F)c(-c4cc(C#N)ns4)n3)CC2)cn1 [Example 91, 5-(2-((1-((1-methyl-1H-pyrazol-4-yl)sulfonyl)piperidin-4-yl)amino)-5-(trifluoromethyl)pyrimidin-4-yl)isothiazole-3-carbonitrile]	≤ 100 nM	100 to 500 nM	100 to 500 nM
Cn1cnc(S(=O)(=O)N2CCC(Nc3ncc(C(F)(F)F)c(-c4nc(C(N)=O)cs4)n3)CC2)c1 [Example 92, 2-(2-((1-((1-Methyl-1H-imidazol-4-yl)sulfonyl)piperidin-4-yl)amino)-5-(trifluoromethyl)pyrimidin-4-yl)thiazole-4-carboxamide]	> 500 nM	> 500 nM	> 500 nM
Cc1sc(-c2nc(NC3CCN(S(=O)(=O)c4cnc(N)s4)CC3)ncc2C(F)(F)F)cc1C#N [Example 93, 5-(2-((1-((2-Aminothiazol-5-yl)sulfonyl)piperidin-4-yl)amino)-5-(trifluoromethyl)pyrimidin-4-yl)-2-methylthiophene-3-carbonitrile]	≤ 100 nM	100 to 500 nM	100 to 500 nM
Cc1sc(-c2nc(N[C@H]3CCN(S(=O)(=O)c4cnc(N)s4)C[C@H]3C)ncc2C(F)(F)F)cc1C#N [Example 94, 5-(2-(((3R,4S)-1-((2-aminothiazol-5-yl)sulfonyl)-3-methylpiperidin-4-yl)amino)-5-(trifluoromethyl)pyrimidin-4-yl)-2-methylthiophene-3-carbonitrile]	≤ 100 nM	> 500 nM	100 to 500 nM
C[C@@H]1CN(S(=O)(=O)c2cnn(C)c2)CC[C@@H]1Nc1ncc(C(F)(F)F)c(-c2ncc(C(C)(C)O)s2)n1 [Example 100, 2-(2-(2-(((3R,4S)-3-methyl-1-((1-methyl-1H-pyrazol-4-yl)sulfonyl)piperidin-4-yl)amino)-5-(trifluoromethyl)pyrimidin-4-yl)thiazol-5-yl)propan-2-ol]	≤ 100 nM	≤ 100 nM	≤ 100 nM
CC(O)(c1cnc(-c2nc(NC3CCN(S(C)(=O)=O)CC3)ncc2C(F)(F)F)s1)C(F)(F)F (stereo not drawn) [Example 103, 1,1,1-trifluoro-2-(2-(2-((1-(methylsulfonyl)piperidin-4-yl)amino)-5-(trifluoromethyl)pyrimidin-4-yl)thiazol-5-yl)propan-2-ol]	≤ 100 nM	≤ 100 nM	≤ 100 nM
C[C@@H]1CN(S(=O)(=O)c2cn(C)cn2)CC[C@@H]1Nc1ncc(C(F)(F)F)c(-c2ncc(C(C)(O)C(F)F)s2)n1 (stereo partly drawn) [Example 104, 1,1-difluoro-2-(2-(2-(((3R,4S)-3-methyl-1-((1-methyl-1H-imidazol-4-yl)sulfonyl)piperidin-4-yl)amino)-5-(trifluoromethyl)pyrimidin-4-yl)thiazol-5-yl)propan-2-ol]	≤ 100 nM	≤ 100 nM	≤ 100 nM
CC(C)(O)Cc1cnc(-c2nc(NC3CCN(S(C)(=O)=O)CC3)ncc2C(F)(F)F)s1 [Example 107, 2-Methyl-1-(2-(2-((1-(methylsulfonyl)piperidin-4-yl)amino)-5-(trifluoromethyl)pyrimidin-4-yl)thiazol-5-yl)propan-2-ol]	≤ 100 nM	≤ 100 nM	≤ 100 nM
CC(C)(O)Cc1cnc(-c2nc(N[C@H]3CCN(S(C)(=O)=O)C[C@H]3F)ncc2C(F)(F)F)s1 [Example 108, 1-(2-(2-(((3R,4S)-3-fluoro-1-(methylsulfonyl)piperidin-4-yl)amino)-5-(trifluoromethyl)pyrimidin-4-yl)thiazol-5-yl)-2-methylpropan-2-ol]	≤ 100 nM	≤ 100 nM	100 to 500 nM
Cn1cc(S(=O)(=O)N2CC[C@H](Nc3ncc(C(F)(F)F)c(-c4ncc(CC(C)(C)O)s4)n3)[C@H](F)C2)cn1 [Example 109, 1-(2-(2-(((3R,4S)-3-fluoro-1-((1-methyl-1H-pyrazol-4-yl)sulfonyl)piperidin-4-yl)amino)-5-(trifluoromethyl)pyrimidin-4-yl)thiazol-5-yl)-2-methylpropan-2-ol]	≤ 100 nM	≤ 100 nM	≤ 100 nM
CC(O)c1cnc(-c2nc(N[C@H]3CCN(S(=O)(=O)c4cnn(C)c4)C[C@H]3F)ncc2C(F)(F)F)s1 (stereo partly drawn) [Example 114, 1-(2-(2-(((3R,4S)-3-fluoro-1-((1-methyl-1H-pyrazol-4-yl)sulfonyl)piperidin-4-yl)amino)-5-(trifluoromethyl)pyrimidin-4-yl)thiazol-5-yl)ethan-1-ol]	≤ 100 nM	≤ 100 nM	100 to 500 nM
C[C@@H]1CN(S(C)(=O)=O)CC[C@@H]1Nc1ncc(C(F)(F)F)c(-c2ncc(CC(C)(C)O)s2)n1 [Example 131, 2-methyl-1-(2-(2-(((3R,4S)-3-methyl-1-(methylsulfonyl)piperidin-4-yl)amino)-5-(trifluoromethyl)pyrimidin-4-yl)thiazol-5-yl)propan-2-ol]	≤ 100 nM	100 to 500 nM	> 500 nM
C[C@@H]1CN(S(C)(=O)=O)CC[C@@H]1Nc1ncc(C(F)(F)F)c(-c2ncc(C(C)(C)O)s2)n1 [Example 132, 2-(2-(2-(((3R,4S)-3-methyl-1-(methylsulfonyl)piperidin-4-yl)amino)-5-(trifluoromethyl)pyrimidin-4-yl)thiazol-5-yl)propan-2-ol]	≤ 100 nM	100 to 500 nM	> 500 nM
C[C@@H]1CN(S(C)(=O)=O)CC[C@@H]1Nc1ncc(C(F)(F)F)c(-c2ncc(C(C)(O)C(F)F)s2)n1 (stereo partly drawn) [Example 142, 1,1-difluoro-2-(2-(2-(((3R,4S)-3-methyl-1-(methylsulfonyl)piperidin-4-yl)amino)-5-(trifluoromethyl)pyrimidin-4-yl)thiazol-5-yl)propan-2-ol]	≤ 100 nM	100 to 500 nM	100 to 500 nM
